# Test results reported in PubChem BioAssay (NCI).
# “And” between values parts separate entries of the source, which are not always exact repeats. Equal entries are not always repeated.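 Five concentrations, 48 hours, 96-well plates. The concentration for 50% growth inhibition is given as GI50. TGI: total growth inhibition.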
# Experiments:
# Assay in all cases: NCI-60 cell line screen, 48 h
# [1] = tested on: SF-295 CNS
# [2] = tested on: ACHN renal
# [3] = tested on: SNB-78 CNS
# [4] = tested on: 786-0 renal
# [5] = tested on: IGROV1 ovarian
# [6] = tested on: LOX IMVI melanoma
# [7] = tested on: M19-MEL melanoma
# [8] = tested on: SR leukemia
# [9] = tested on: NCI/ADR-RES ovarian
# [10] = tested on: DU-145 prostate
SMILES,TGI [1],TGI [2] [µM],TGI [3] [µM],TGI [4] [µM],TGI [5],TGI [6],TGI [7] [µM],TGI [8],TGI [9],TGI [10] [µM],GI50 [1],GI50 [2],GI50 [8],GI50 [4],GI50 [5],GI50 [6],GI50 [9],GI50 [10],GI50 [7] [µM],GI50 [3] [µM]
CC(=O)Nc1c(Nc2ccccc2)[nH]c(C)nc1=S,> 100 µM,> 100,> 100,> 100,> 100 µM,> 100 µM,–,–,–,–,–,–,–,–,–,–,–,–,–,–
c1ccc2c3c([nH]c2c1)[C@H]1C2CCCCN2CN1CC3 (stereo not given in full),> 100 µM,> 100,> 100,> 100,> 100 µM,–,> 100,–,–,–,–,–,–,–,–,–,–,–,–,–
CC1/C(=N\O)CC(c2ccccc2)N(C)C1c1ccccc1 (stereo not given),> 100 µM,> 100,> 100,> 100,> 100 µM,> 100 µM,> 100,–,–,–,–,–,–,–,–,–,–,–,–,–
COc1ccc(Cc2coc3ccccc3c2=O)cc1OC,> 100 µM,> 100,–,> 100,> 100 µM,> 100 µM,–,> 100 µM,> 100 µM,> 100,–,–,–,–,–,–,–,–,–,–
CCOC(=O)C(=O)CC1=Nc2ccccc2SC(c2cccc(C)c2)C1 (stereo not given),–,30.3,32.4,32.4,35.7 µM,–,40.9,60.5 µM,–,–,–,–,–,–,–,–,–,–,–,–
O=C(Nc1ccccc1)Nc1ccc2cc3ccc(NC(=O)Nc4ccccc4)cc3nc2c1,3.72 µM,> 100,–,3.34,4.3 µM,1.67 µM,–,0.734 µM,> 100 µM,7.49,1.82 µM,3.57 µM,0.287 µM,1.64 µM,1.66 µM,0.467 µM,68.7 µM,2.41 µM,–,–
COc1ccc(-c2nc(-c3ccc(C)cc3)cn3ccnc23)cc1,> 50 µM,> 50,–,45.6,> 50 µM,13.8 µM,–,> 50 µM,> 50 µM,> 50,3.69 µM,7.58 µM,0.3 µM,8.6 µM,2.43 µM,3.43 µM,2.16 µM,6.11 µM,–,–
O=C(/C=C\c1ccc([N+](=O)[O-])cc1)c1ccccc(=O)c1O,14.7 µM,2.85,–,4.05,4.16 µM,2.86 µM,–,> 100 µM,2.97 µM,9.44,–,–,–,–,–,–,–,–,–,–
COCc1c(-c2cc3cc(C)cc(OC)c3s2)c2c(N)ncnn2c1CN1CCNC(=O)C1,21.5 µM,55.5,–,82.9,> 100 µM,13.5 µM,–,40.5 µM,> 100 µM,> 100,3.05 µM,4.31 µM,3.81 µM,5.86 µM,3.39 µM,3.05 µM,24.3 µM,4.99 µM,–,–
O=S(=O)(NNc1ccccc1)c1ccccc1,25.4 µM,15.8,–,> 100,32.7 µM,13.6 µM,–,53.1 µM,36.1 µM,34.3,–,–,–,–,–,–,–,–,–,–
O=[N+]([O-])C=C(c1ccc(Cl)cc1)c1ccc(Cl)cc1,32.8 µM,30.5,44,30.6,48.1 µM,25.5 µM,–,54 µM,–,–,–,–,–,–,–,–,–,–,–,–
CCN(CC)CCCNc1cc(OC)cc2nc3cc(Cl)ccc3nc12,6.48 µM,11.8,–,3.5,6.78 µM,2.25 µM,–,18 µM,8.52 µM,12.4,2.33 µM,1.33 µM,0.633 µM,1.18 µM,1.96 µM,0.913 µM,1.64 µM,2.53 µM,–,–
CCOP(=O)(OCC)C1CCCOC1=O (stereo not given),> 100 µM,> 100,> 100,> 100,> 100 µM,> 100 µM,> 100,–,–,–,–,–,–,–,–,–,–,–,–,–
COC(=O)C1=C(O)[C@H](C(=O)OC)C2(O)C(C(=O)OC)[C@H](c3ccc(OC(=O)C(C)c4ccc(CC(C)C)cc4)cc3)C[C@@H]1[C@@H]2C(=O)OC (stereo not given in full),> 50 µM,31.3,–,> 50,41.3 µM,14.9 µM,–,> 50 µM,> 50 µM,9.58,> 50 µM,12 µM,0.754 µM,20.4 µM,15 µM,6.06 µM,> 50 µM,0.804 µM,–,–
CC1C(C)N(C(=O)CCl)c2ccccc2N1C(=O)CCl (stereo not given),3.06 µM,0.783,–,3.02,0.435 µM,0.729 µM,–,2.02 µM,13.3 µM,1.8,1.45 µM,0.309 µM,0.396 µM,0.937 µM,0.203 µM,0.235 µM,0.784 µM,0.472 µM,–,–
CC(C)(C)c1ccc(Oc2ccc(N)cn2)cc1,> 100 µM,> 100,–,> 100,> 100 µM,> 100 µM,–,> 100 µM,> 100 µM,> 100,45.8 µM,> 100 µM,30 µM,16.8 µM,> 100 µM,60.1 µM,51.6 µM,38.2 µM,–,–
Cc1ccc(/C=N/Nc2nc(Nc3ccccc3)nc(-n3nc(C)cc3C)n2)cc1,14.4 µM,56.6,–,36.9,44.8 µM,22.1 µM,–,> 100 µM,8.67 µM,> 100,2.74 µM,4.44 µM,3.31 µM,3.7 µM,4.99 µM,3.81 µM,2.53 µM,5.45 µM,–,–
CC1=C2[C@@H](CC1)[C@]1(C)O[C@@](C(C)C)(C[C@H]1OC(=O)CO)[C@H]2OC(=O)C1CC1c1ccccc1 (stereo not given in full),24.7 µM,20.9,–,32.2,46.7 µM,31.1 µM,–,34.9 µM,30.8 µM,27.9,12 µM,3.05 µM,10.9 µM,15.1 µM,19.1 µM,14.4 µM,8.95 µM,14.6 µM,–,–
CC1=C(c2ccccc2)C(O)(c2ccccc2)C(C)C1=O (stereo not given),62.6 µM,> 100,–,> 100,> 100 µM,> 100 µM,–,> 100 µM,9.94 µM,> 100,12.7 µM,35.6 µM,3.75 µM,18.9 µM,10.3 µM,15.3 µM,2.95 µM,27.2 µM,–,–

SMILES,TGI [1],TGI [2] [µM],TGI [3] [µM],TGI [4] [µM],TGI [5],TGI [6],TGI [7] [µM],TGI [8],TGI [9],TGI [10] [µM],GI50 [1],GI50 [2],GI50 [8],GI50 [4],GI50 [5],GI50 [6],GI50 [9],GI50 [10],GI50 [7] [µM],GI50 [3] [µM]
CCC(C)Nc1ccc(N)cc1 (stereo not given),20.1 µM,13.3,–,14.3,20.5 µM,11 µM,–,5.4 µM,28 µM,19.7,4.91 µM,3.73 µM,2.1 µM,3.89 µM,4.79 µM,3.43 µM,10.6 µM,5.75 µM,–,–
CNC(=O)c1cc(Oc2ccc(NC(=O)Nc3ccc(Cl)c(C(F)(F)F)c3)c(F)c2)ccn1,19.8 µM and > 10 µM,> 44.9,–,> 83.2,11.2 µM and > 10 µM,6.93 µM and > 10 µM,–,4.38 µM and > 10 µM,9.81 µM and > 10 µM,> 100,2.82 µM and 2.29 µM,3.29 µM and 2.88 µM,1.9 µM and 2.63 µM,3.39 µM and 3.06 µM,2.75 µM and 1.85 µM,1.12 µM and 0.787 µM,2.67 µM and 2.44 µM,3.46 µM and 3.96 µM,–,–
CCc1ccc(CCC(=O)Nc2ncc(Cc3ccc(Cl)cc3)s2)o1,> 100 µM,> 100,–,> 100,> 100 µM,> 100 µM,–,> 100 µM,> 75.3 µM,> 100,0.374 µM,0.66 µM,0.419 µM,0.582 µM,0.549 µM,1.02 µM,0.335 µM,0.329 µM,–,–
NC(=O)c1cc([N+](=O)[O-])c(Cl)c([N+](=O)[O-])c1Cl,12.1 µM,3.71,–,2.87,7.73 µM,1.16 µM,–,4.8 µM,4.93 µM,2.88,3.29 µM,1.63 µM,0.516 µM,1.44 µM,0.625 µM,0.33 µM,2.01 µM,1.55 µM,–,–
Nc1nc([Se])c2ncn(C3OC(CO)C(O)C3O)c2n1 (stereo not given),> 100 µM,> 100,–,> 100,> 100 µM,> 100 µM,–,> 100 µM,> 100 µM,> 100,3.95 µM,20.8 µM,2.88 µM,17.2 µM,25.9 µM,2.85 µM,5.57 µM,3.31 µM,–,–
C[CH2][Ge]([CH2]C)([CH2]C)[O]C(=O)C(OC(C)=O)c1ccccc1 (stereo not given),> 100 µM,> 100,> 100,> 100,> 100 µM,> 100 µM,> 100,–,–,–,> 100 µM,> 100 µM,–,> 100 µM,> 100 µM,> 100 µM,–,–,> 100,> 100
ClC/C=C/COC1CCCCO1 (stereo not given),> 100 µM,> 100,> 100,> 100,> 100 µM,–,> 100,54.2 µM,–,–,–,–,–,–,–,–,–,–,–,–
CCC(C)[C@H](NC(=O)Nc1cc(C(F)(F)F)cc(C(F)(F)F)c1)C(=O)N[C@@H](Cc1cn(C)cn1)C(=O)OC (stereo not given in full),1.95 µM,2.01,–,1.88,2.06 µM,1.83 µM,–,2.08 µM,5.57 µM,1.83,1.36 µM,1.4 µM,0.801 µM,1.19 µM,1.04 µM,0.768 µM,3.78 µM,1.07 µM,–,–
COC(=O)N/N=C(\C)c1c(O)cc(C)oc1=O,> 100 µM,> 100,> 100,> 100,> 100 µM,44.5 µM,–,> 100 µM,–,–,–,–,–,–,–,–,–,–,–,–
COc1ccc2c3c([nH]c2c1[N+](=O)[O-])C(C)N(Cc1ccccc1)CC3 (stereo not given),–,> 100,> 100,> 100,30.9 µM,> 100 µM,–,45.2 µM,–,–,–,–,–,–,–,–,–,–,–,–
Cc1cc2c(cc1Cl)S/C(=C/C(=O)O)C(Nc1ccc3ncsc3c1)=NS2(=O)=O,> 48.1 µM,> 68,–,22.1,> 100 µM,62.9 µM,–,77.9 µM,> 34.7 µM,> 97.3,> 31.6 µM,> 52.6 µM,14.6 µM,8.57 µM,31.9 µM,22.4 µM,> 18.1 µM,21.2 µM,–,–
COc1ncc(Nc2ncc([C@@H](C)N3CCN(S(C)(=O)=O)CC3)cc2-c2nc(C)nc(N)n2)cc1F,1.85 µM,> 100,–,2.86,0.0829 µM,12.5 µM,–,> 61.5 µM,> 100 µM,> 100,0.0287 µM,0.0651 µM,4.83 µM,0.0192 µM,0.0139 µM,0.32 µM,1.61 µM,0.183 µM,–,–
COc1ccc(C/C(=C(\C)c2ccc(OCCN3CCCC3)cc2)c2ccc(OCCN3CCCC3)cc2)cc1,3.47 µM,3.12,–,3.24,3.97 µM,3.18 µM,–,3.47 µM,3.71 µM,3.75,1.76 µM,1.74 µM,0.565 µM,1.63 µM,1.87 µM,1.73 µM,1.96 µM,1.86 µM,–,–
CN(c1ccc(C(=O)c2ccc(N(C)S(C)(=O)=O)cc2)cc1)S(C)(=O)=O,> 100 µM,> 100,> 100,> 100,–,–,> 100,> 100 µM,–,–,–,–,–,–,–,–,–,–,–,–
COc1ccc2c(c1)[nH]c(=O)c1c3cccc(F)c3cn21,–,> 100,–,> 86.1,–,> 100 µM,–,0.594 µM,14.3 µM,> 100,0.0408 µM,0.0576 µM,0.0247 µM,0.0665 µM,0.0397 µM,0.0759 µM,0.038 µM,0.0696 µM,–,–
O=C1C=CC=C/C1=C1/SC(c2ccccc2)=C(O)N1c1ccccc1,> 100 µM,> 100,> 100,> 100,> 100 µM,–,> 100,–,–,–,–,–,–,–,–,–,–,–,–,–
COc1ccc2c(c1)nc(C(=O)c1ccco1)c(C(F)(F)F)[n+]2[O-],> 100 µM,> 100,–,> 100,> 100 µM,> 100 µM,–,> 100 µM,> 100 µM,> 100,> 100 µM,> 100 µM,> 100 µM,29.2 µM,> 100 µM,> 100 µM,> 100 µM,> 100 µM,–,–
O=C(O)[C@H](NS(=O)(=O)c1ccc(F)cc1)c1ccccc1,> 100 µM,> 100,> 100,> 100,> 100 µM,> 100 µM,> 100,–,–,–,–,–,–,–,–,–,–,–,–,–
